Tested on: highly tumor reactive A2/Melan-A multimer+ CD8+ T cell clones
Conditions: 4 h

IC50: ~1 nM
SMILES: CC[C@H](C)[C@H](NC(=O)CNC(=O)[C@H](C)NC(=O)[C@H](C)N)C(=O)NCC(=O)N[C@H](C(=O)N[C@@H](CC(C)C)C(=O)N[C@H](C(=O)N[C@H](C(=O)O)C(C)C)[C@@H](C)O)[C@@H](C)CC [Melan-A 27–35]

From article PMC2193921 (The Journal of Experimental Medicine, 2002)
